The values that follow come from US4645858A, “Pentanedioic acid derivatives” (G. D. Searle & Co., priority 1985, dated 1987).

In one data set the test system is male Rhesus monkey. Kind of data set: In vivo serum cholesterol test in male Rhesus monkeys. The note with it: 60 mg/kg/day.
For a further data set, the target named is T1, HMG CoA reductase (Rattus norvegicus, UniProt P51639).
T1 construct: The resultant supernatants are discarded and the residues suspended in half the volume of homogenization medium previously employed; from tissue; host or cells: liver of male Charles River CD rats treated with 20,25-diazacholesterol; 100,000×g pellet (microsomes) of the homogenate
T1 sequence (P51639 1-887): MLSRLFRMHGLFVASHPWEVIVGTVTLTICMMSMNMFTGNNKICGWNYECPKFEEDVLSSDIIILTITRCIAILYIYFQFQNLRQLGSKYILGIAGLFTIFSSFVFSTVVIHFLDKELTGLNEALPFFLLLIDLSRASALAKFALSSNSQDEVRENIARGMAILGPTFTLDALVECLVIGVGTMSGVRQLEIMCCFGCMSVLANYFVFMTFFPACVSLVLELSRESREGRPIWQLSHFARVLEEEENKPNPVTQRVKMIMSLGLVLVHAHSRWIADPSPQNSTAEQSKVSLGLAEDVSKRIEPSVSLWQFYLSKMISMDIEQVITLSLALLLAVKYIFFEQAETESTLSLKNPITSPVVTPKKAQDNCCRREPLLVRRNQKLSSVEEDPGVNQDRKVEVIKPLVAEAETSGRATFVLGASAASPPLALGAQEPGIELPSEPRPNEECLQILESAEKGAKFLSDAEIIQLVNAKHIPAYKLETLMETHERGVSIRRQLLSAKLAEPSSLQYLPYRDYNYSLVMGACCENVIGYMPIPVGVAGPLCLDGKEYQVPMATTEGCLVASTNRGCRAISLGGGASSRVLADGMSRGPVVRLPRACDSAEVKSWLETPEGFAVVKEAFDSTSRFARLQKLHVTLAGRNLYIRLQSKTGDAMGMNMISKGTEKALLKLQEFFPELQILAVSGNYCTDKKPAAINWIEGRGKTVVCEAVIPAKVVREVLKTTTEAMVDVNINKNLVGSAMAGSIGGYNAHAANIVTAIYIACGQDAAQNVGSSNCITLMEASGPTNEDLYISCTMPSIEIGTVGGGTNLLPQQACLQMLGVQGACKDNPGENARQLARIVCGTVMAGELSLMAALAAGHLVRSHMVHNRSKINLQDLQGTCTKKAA
Kind of data set: HMG CoA reductase activity assay (rat liver microsomal preparation). The class given is biochemical. A general note: Liver microsomes are vesicles of endoplasmic reticulum, rich in cytochrome P450 enzymes.

Experimental for male Rhesus monkey: In vivo activity is tested as follows:
Initial serum total cholesterol, triglycerides, and lipoprotein cholesterol values are determined 3 times for each male Rhesus monkey used before treatment with a test compound begins. The test compound is administered in an initial dose of 60 mg/kg for 2 weeks and blood samples are taken to determine if rebound occurs. […] Statistical comparisons are made using the two tailed student's test.

For `CCCCCCCCCCCCCCCC(O)(CC(=O)O)CC(=O)O`, the acute toxicity entry in the data set on male Rhesus monkey (Rhesus monkeys) is on record as “acute toxicity in 2 of 4 monkeys”.
In turn, `CC(C)(C)CCCCCCCCCCCC(O)(CC(=O)O)CC(=O)O` yielded a reduced serum cholesterol with male Rhesus monkey (after 14 days of treatment, Rhesus monkey) of 30%.
Regarding `O=C(O)CC(O)(CCCCCCCCCCC1CCCCC1)CC(=O)O`, the IC50 at HMG CoA reductase (read-out: IC50 (HMG CoA reductase inhibition)) was found to be 52 µM.
With `O=C(O)CC(O)(CC(=O)O)CC1CCCC1`, the “HMG CoA reductase inhibition” value at HMG CoA reductase (at concentrations at least up to 1000 μm) was “inactive”.

A word on the IC50: it is the concentration at which inhibition is half-maximal.
